Experimental data published in ChEMBL document CHEMBL1201861, “Genomics of Drug Sensitity in Cancer screening data, Wellcome Trust Sanger Institute”.

Columns and labels:
Test in all cases: cells
COR-L23 = format: functional, cell-based; conditions: Homo sapiens;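 note: cell viability assay measuring how strongly compounds suppress growth of COR-L23 cells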
Description: SANGER: Inhibition of human COR-L23 cell growth in a cell viability assay.

Ca9-22 = format: functional, cell-based; conditions: Homo sapiens;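 note: growth inhibition of Ca9-22 cells, read out with a cell viability assay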
Description: SANGER: Inhibition of human Ca9-22 cell growth in a cell viability assay.

Calu-3 = format: functional, cell-based; conditions: Homo sapiens;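 note: growth inhibition of human Calu-3 cells, determined with a cell viability assay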
Description: SANGER: Inhibition of human Calu-3 cell growth in a cell viability assay.

DBTRG-05MG = format: functional, cell-based; conditions: Homo sapiens;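 note: cell viability assay measuring growth inhibition of human DBTRG-05MG cells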
Description: SANGER: Inhibition of human DBTRG-05MG cell growth in a cell viability assay.

Daoy = format: functional, cell-based; conditions: Homo sapiens;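 note: daoy cell growth inhibition, read out as cell viability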
Description: SANGER: Inhibition of human Daoy cell growth in a cell viability assay.

Detroit 562 = format: functional, cell-based; conditions: Homo sapiens;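 note: growth inhibition of human Detroit 562 cells, read out by a cell viability assay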
Description: SANGER: Inhibition of human Detroit562 cell growth in a cell viability assay.

EFM-19 = format: functional, cell-based; conditions: Homo sapiens;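 note: growth inhibition of human EFM-19 cells, measured in a cell viability assay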
Description: SANGER: Inhibition of human EFM-19 cell growth in a cell viability assay.

EW-22 = format: functional, cell-based; conditions: Homo sapiens;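 note: growth inhibition of the EW-22 cell line, measured with a cell viability readout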
Description: SANGER: Inhibition of human EW-22 cell growth in a cell viability assay.

HGC-27 = format: functional, cell-based; conditions: Homo sapiens;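 note: growth inhibition of human HGC-27 cells, read out in a cell viability assay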
Description: SANGER: Inhibition of human HGC-27 cell growth in a cell viability assay.

HN = format: functional, cell-based; conditions: Homo sapiens
Description: SANGER: Inhibition of human HN cell growth in a cell viability assay.

HSC-3 = format: functional, cell-based; conditions: Homo sapiens
Description: SANGER: Inhibition of human HSC-3 cell growth in a cell viability assay.

HT-1080 = format: functional, cell-based; conditions: Homo sapiens
Description: SANGER: Inhibition of human HT-1080 cell growth in a cell viability assay.

HT-3 = format: functional, cell-based; conditions: Homo sapiens;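 note: growth inhibition measured with a cell viability readout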
Description: SANGER: Inhibition of human HT-3 cell growth in a cell viability assay.

HTC-C3 = format: functional, cell-based; conditions: Homo sapiens;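 note: inhibition of cell growth, read out with a cell viability assay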
Description: SANGER: Inhibition of human HTC-C3 cell growth in a cell viability assay.

KYSE-180 = format: functional, cell-based; conditions: Homo sapiens;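 note: growth inhibition of KYSE-180 cells, read out with a cell viability assay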
Description: SANGER: Inhibition of human KYSE-180 cell growth in a cell viability assay.

MG-63 = format: functional, cell-based; conditions: Homo sapiens;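 note: growth inhibition of human MG-63 cells, read out with a cell viability assay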
Description: SANGER: Inhibition of human MG-63 cell growth in a cell viability assay.

MeWo = format: functional, cell-based; conditions: Homo sapiens;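 note: growth inhibition of MeWo cells, determined by a cell viability readout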
Description: SANGER: Inhibition of human Mewo cell growth in a cell viability assay.

NB14 = format: functional, cell-based, Homo sapiens; conditions: Homo sapiens, NB14;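 note: growth inhibition of NB14 cells measured with a cell viability assay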
Description: SANGER: Inhibition of human NB14 cell growth in a cell viability assay.

NCI-H1437 = format: functional, cell-based; conditions: Homo sapiens;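 note: growth inhibition of human NCI-H1437 cells, read out by a cell viability assay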
Description: SANGER: Inhibition of human NCI-H1437 cell growth in a cell viability assay.

NCI-H1755 = format: functional, cell-based; conditions: Homo sapiens;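 note: cell viability readout used to measure growth inhibition of NCI-H1755 cells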
Description: SANGER: Inhibition of human NCI-H1755 cell growth in a cell viability assay.

NCI-H1793 = format: functional, cell-based; conditions: Homo sapiens;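 note: cell growth inhibition, read out by a cell viability assay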
Description: SANGER: Inhibition of human NCI-H1793 cell growth in a cell viability assay.

NCI-H2228 = format: functional, cell-based; conditions: Homo sapiens;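 note: growth inhibition of human NCI-H2228 cells, read out by a cell viability assay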
Description: SANGER: Inhibition of human NCI-H2228 cell growth in a cell viability assay.

NCI-H2347 = format: functional, cell-based; conditions: Homo sapiens;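 note: growth inhibition of the cell line, read out with a cell viability assay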
Description: SANGER: Inhibition of human NCI-H2347 cell growth in a cell viability assay.

PFSK-1 = format: functional, cell-based; conditions: Homo sapiens;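 note: cell viability assay measuring how strongly compounds suppress growth of human PFSK-1 cells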
Description: SANGER: Inhibition of human PFSK-1 cell growth in a cell viability assay.

RD = format: functional, cell-based; conditions: Homo sapiens
Description: SANGER: Inhibition of human RD cell growth in a cell viability assay.

RERF-LC-MS = format: functional, cell-based; conditions: Homo sapiens;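 note: growth inhibition of human RERF-LC-MS cells, read out by a cell viability assay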
Description: SANGER: Inhibition of human RERF-LC-MS cell growth in a cell viability assay.

RO82-W-1 = format: functional, cell-based; conditions: Homo sapiens;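 note: growth inhibition of human RO82-W-1 cells, measured with a cell viability assay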
Description: SANGER: Inhibition of human RO82-W-1 cell growth in a cell viability assay.

RPMI-2650 = format: functional, cell-based; conditions: Homo sapiens
Description: SANGER: Inhibition of human RPMI-2650 cell growth in a cell viability assay.

S-117 = format: functional, cell-based; conditions: Homo sapiens
Description: SANGER: Inhibition of human S-117 cell growth in a cell viability assay.

SK-LU-1 = format: functional, cell-based; conditions: Homo sapiens;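 note: cell viability assay measuring growth inhibition of human SK-LU-1 cells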
Description: SANGER: Inhibition of human SK-LU-1 cell growth in a cell viability assay.

SNU-387 = format: functional, cell-based; conditions: Homo sapiens
Description: SANGER: Inhibition of human SNU-387 cell growth in a cell viability assay.

SW1417 = format: functional, cell-based; conditions: Homo sapiens;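 note: growth inhibition of human SW1417 cells, read out with a cell viability assay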
Description: SANGER: Inhibition of human SW1417 cell growth in a cell viability assay.

SW626 = format: functional, cell-based; conditions: Homo sapiens;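 note: growth inhibition of SW626 cells, measured with a cell viability assay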
Description: SANGER: Inhibition of human SW626 cell growth in a cell viability assay.

T98G = format: functional, cell-based; conditions: Homo sapiens;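 note: growth inhibition of T98G cells, read out by a cell viability assay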
Description: SANGER: Inhibition of human T98G cell growth in a cell viability assay.

A673 = format: functional, cell-based; conditions: Homo sapiens;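 note: growth inhibition of human A673 cells, read out through a cell viability assay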
Description: SANGER: Inhibition of human A673 cell growth in a cell viability assay.

AGS = format: functional, cell-based; conditions: Homo sapiens;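 note: growth inhibition of AGS cells, determined with a cell viability assay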
Description: SANGER: Inhibition of human AGS cell growth in a cell viability assay.

ASPC1 = format: functional, cell-based; conditions: Homo sapiens;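 note: growth inhibition of AsPC-1 cells, read out with a cell viability assay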
Description: SANGER: Inhibition of human AsPC-1 cell growth in a cell viability assay.

BFTC-905 = format: functional, cell-based; conditions: Homo sapiens
Description: SANGER: Inhibition of human BFTC-905 cell growth in a cell viability assay.

BFTC-909 = format: functional, cell-based; conditions: Homo sapiens
Description: SANGER: Inhibition of human BFTC-909 cell growth in a cell viability assay.

CAL-120 = format: functional, cell-based; conditions: Homo sapiens;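 note: cell growth inhibition, read out as cell viability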
Description: SANGER: Inhibition of human CAL-120 cell growth in a cell viability assay.

CAL-85-1 = format: functional, cell-based; conditions: Homo sapiens;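 note: growth inhibition of human CAL-85-1 cells, read out with a cell viability assay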
Description: SANGER: Inhibition of human CAL-85-1 cell growth in a cell viability assay.

CAPAN-1 = format: functional, cell-based; conditions: Homo sapiens;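 note: growth suppression of CAPAN-1 cells, read out by a cell viability assay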
Description: SANGER: Inhibition of human CAPAN-1 cell growth in a cell viability assay.

D-336MG = format: functional, cell-based, Homo sapiens; conditions: Homo sapiens, D-336MG
Description: SANGER: Inhibition of human D-336MG cell growth in a cell viability assay.

HMV-2 cell line = format: functional, cell-based; conditions: Homo sapiens;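 note: growth inhibition of HMV-II cells, read out with a cell viability assay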
Description: SANGER: Inhibition of human HMV-II cell growth in a cell viability assay.

MKN-45 = format: functional, cell-based; conditions: Homo sapiens;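 note: growth inhibition of human MKN-45 cells, measured with a cell viability assay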
Description: SANGER: Inhibition of human MKN45 cell growth in a cell viability assay.

NCI-H2030 = format: functional, cell-based; conditions: Homo sapiens;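 note: growth inhibition of human NCI-H2030 cells, read out by a cell viability assay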
Description: SANGER: Inhibition of human NCI-H2030 cell growth in a cell viability assay.

SK-MEL-24 = format: functional, cell-based; conditions: Homo sapiens;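 note: growth inhibition read out by a cell viability assay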
Description: SANGER: Inhibition of human SK-MEL-24 cell growth in a cell viability assay.

SW13 = format: functional, cell-based; conditions: Homo sapiens;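 note: IC50 is inhibition of SW13 cell growth, read out with a cell viability assay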
Description: SANGER: Inhibition of human SW13 cell growth in a cell viability assay.

NC1(c2ccc(-c3nc4ccn5c(=O)[nH]nc5c4cc3-c3ccccc3)cc2)CCC1 [MK-2206]
IC50 (COR-L23): > 4 µM
IC50 (Ca9-22): > 4 µM
IC50 (Calu-3): > 4 µM
IC50 (DBTRG-05MG): > 4 µM
IC50 (Daoy): > 4 µM
IC50 (Detroit 562): > 4 µM
IC50 (EFM-19): 0.44 µM
IC50 (EW-22): > 4 µM
IC50 (HGC-27): 0.568 µM
IC50 (HN): > 4 µM
IC50 (HSC-3): > 4 µM
IC50 (HT-1080): > 4 µM
IC50 (HT-3): > 4 µM
IC50 (HTC-C3): > 4 µM
IC50 (KYSE-180): > 4 µM
IC50 (MG-63): > 4 µM
IC50 (MeWo): > 4 µM
IC50 (NB14): > 4 µM
IC50 (NCI-H1437): > 4 µM
IC50 (NCI-H1755): > 4 µM
IC50 (NCI-H1793): > 4 µM
IC50 (NCI-H2228): 2.32 µM
IC50 (NCI-H2347): > 4 µM
IC50 (PFSK-1): > 4 µM
IC50 (RD): > 4 µM
IC50 (RERF-LC-MS): > 4 µM
IC50 (RO82-W-1): > 4 µM
IC50 (RPMI-2650): > 4 µM
IC50 (S-117): > 4 µM
IC50 (SK-LU-1): > 4 µM
IC50 (SNU-387): 1.88 µM
IC50 (SW1417): > 4 µM
IC50 (SW626): > 4 µM
IC50 (T98G): > 4 µM
IC50 (A673): > 4 µM
IC50 (AGS): 2.72 µM
IC50 (ASPC1): 0.221 µM
IC50 (BFTC-905): > 4 µM
IC50 (BFTC-909): > 4 µM
IC50 (CAL-120): > 4 µM
IC50 (CAL-85-1): > 4 µM
IC50 (CAPAN-1): > 4 µM

CC1(C)CCC(c2ccc(Cl)cc2)=C(CN2CCN(c3ccc(C(=O)NS(=O)(=O)c4ccc(N[C@H](CCN5CCOCC5)CSc5ccccc5)c(S(=O)(=O)C(F)(F)F)c4)cc3)CC2)C1 [NAVITOCLAX]
IC50 (COR-L23): 1.8 µM
IC50 (Ca9-22): > 2 µM
IC50 (Calu-3): 1.71 µM
IC50 (D-336MG): > 2 µM
IC50 (DBTRG-05MG): > 2 µM
IC50 (Daoy): > 2 µM
IC50 (Detroit 562): > 2 µM
IC50 (EFM-19): > 2 µM
IC50 (EW-22): 0.467 µM
IC50 (HGC-27): > 2 µM
IC50 (HMV-2 cell line): > 2 µM
IC50 (HN): > 2 µM
IC50 (HSC-3): 1.96 µM
IC50 (HT-1080): > 2 µM
IC50 (HT-3): > 2 µM
IC50 (HTC-C3): > 2 µM
IC50 (KYSE-180): > 2 µM
IC50 (MG-63): > 2 µM
IC50 (MKN-45): > 2 µM
IC50 (MeWo): > 2 µM
IC50 (NB14): 1.14 µM
IC50 (NCI-H1437): > 2 µM
IC50 (NCI-H1755): > 2 µM
IC50 (NCI-H1793): > 2 µM
IC50 (NCI-H2030): > 2 µM
IC50 (NCI-H2228): > 2 µM
IC50 (NCI-H2347): > 2 µM
IC50 (PFSK-1): > 2 µM
IC50 (RD): 0.759 µM
IC50 (RERF-LC-MS): > 2 µM
IC50 (RO82-W-1): > 2 µM
IC50 (RPMI-2650): > 2 µM
IC50 (S-117): > 2 µM
IC50 (SK-LU-1): > 2 µM
IC50 (SK-MEL-24): > 2 µM
IC50 (SNU-387): > 2 µM
IC50 (SW13): > 2 µM
IC50 (SW1417): 0.554 µM
IC50 (SW626): > 2 µM
IC50 (T98G): > 2 µM
IC50 (A673): > 2 µM
IC50 (AGS): > 2 µM
IC50 (ASPC1): > 2 µM
IC50 (BFTC-905): > 2 µM
IC50 (BFTC-909): > 2 µM
IC50 (CAL-120): 1.16 µM
IC50 (CAL-85-1): > 2 µM
IC50 (CAPAN-1): > 2 µM

CS(=O)(=O)N1CCN(Cc2cc3nc(-c4cccc5[nH]ncc45)nc(N4CCOCC4)c3s2)CC1 [PICTILISIB]
IC50 (COR-L23): 3.37 µM
IC50 (Ca9-22): > 4 µM
IC50 (Calu-3): 3.71 µM
IC50 (DBTRG-05MG): > 4 µM
IC50 (Daoy): > 4 µM
IC50 (Detroit 562): > 4 µM
IC50 (EFM-19): 1.62 µM
IC50 (EW-22): 2.25 µM
IC50 (HGC-27): 0.213 µM
IC50 (HN): 3.07 µM
IC50 (HSC-3): 0.84 µM
IC50 (HT-1080): 3.09 µM
IC50 (HT-3): 2.49 µM
IC50 (HTC-C3): 3.29 µM
IC50 (KYSE-180): > 4 µM
IC50 (MG-63): 0.541 µM
IC50 (MeWo): 3.42 µM
IC50 (NB14): > 4 µM
IC50 (NCI-H1437): > 4 µM
IC50 (NCI-H1755): > 4 µM
IC50 (NCI-H1793): > 4 µM
IC50 (NCI-H2030): 2.24 µM
IC50 (NCI-H2228): 1.85 µM
IC50 (NCI-H2347): > 4 µM
IC50 (PFSK-1): 1.94 µM
IC50 (RD): > 4 µM
IC50 (RERF-LC-MS): > 4 µM
IC50 (RO82-W-1): > 4 µM
IC50 (RPMI-2650): 3.61 µM
IC50 (S-117): > 4 µM
IC50 (SK-LU-1): 2.45 µM
IC50 (SK-MEL-24): > 4 µM
IC50 (SNU-387): 3.16 µM
IC50 (SW13): > 4 µM
IC50 (SW1417): > 4 µM
IC50 (SW626): > 4 µM
IC50 (T98G): 1.99 µM
IC50 (A673): > 4 µM
IC50 (AGS): 3.62 µM
IC50 (ASPC1): > 4 µM
IC50 (BFTC-905): 1.13 µM
IC50 (BFTC-909): 1.43 µM
IC50 (CAL-120): > 4 µM
IC50 (CAL-85-1): > 4 µM
IC50 (CAPAN-1): > 4 µM

CN(C)CCOc1ccc(-c2nc(-c3ccncc3)c(-c3ccc4c(c3)CC/C4=N\O)[nH]2)cc1 [SB590885]
IC50 (COR-L23): > 5 µM
IC50 (Ca9-22): > 5 µM
IC50 (Calu-3): > 5 µM
IC50 (DBTRG-05MG): 3.53 µM
IC50 (Daoy): > 5 µM
IC50 (Detroit 562): > 5 µM
IC50 (EFM-19): > 5 µM
IC50 (EW-22): > 5 µM
IC50 (HGC-27): > 5 µM
IC50 (HN): > 5 µM
IC50 (HSC-3): > 5 µM
IC50 (HT-1080): > 5 µM
IC50 (HT-3): > 5 µM
IC50 (HTC-C3): > 5 µM
IC50 (KYSE-180): > 5 µM
IC50 (MG-63): > 5 µM
IC50 (MeWo): > 5 µM
IC50 (NB14): > 5 µM
IC50 (NCI-H1437): > 5 µM
IC50 (NCI-H1755): > 5 µM
IC50 (NCI-H1793): > 5 µM
IC50 (NCI-H2030): > 5 µM
IC50 (NCI-H2228): > 5 µM
IC50 (NCI-H2347): > 5 µM
IC50 (PFSK-1): > 5 µM
IC50 (RD): > 5 µM
IC50 (RERF-LC-MS): > 5 µM
IC50 (RO82-W-1): > 5 µM
IC50 (RPMI-2650): > 5 µM
IC50 (S-117): > 5 µM
IC50 (SK-LU-1): > 5 µM
IC50 (SNU-387): > 5 µM
IC50 (SW1417): > 5 µM
IC50 (SW626): > 5 µM
IC50 (T98G): > 5 µM
IC50 (A673): > 5 µM
IC50 (AGS): > 5 µM
IC50 (ASPC1): > 5 µM
IC50 (BFTC-905): > 5 µM
IC50 (BFTC-909): > 5 µM
IC50 (CAL-120): > 5 µM
IC50 (CAL-85-1): > 5 µM
IC50 (CAPAN-1): > 5 µM
